Like-named read-outs stand apart in the source and are kept apart here.
What was measured:
PDGFRβ = PDGFRβ (Homo sapiens (Human), UniProt P09619); assay: PDGF-BB induced phosphorylation of PDGFRβ in fibroblasts (MRC5, HTRF); format: cell-based; settings: MRC5 cells, PDGFBB stimulation; read-out: PDGFBB-induced PDGFRβ phosphorylation in MRC5 cells (IC50)
MRC5 cells = assay: Cell viability assay in MRC5 cells (MTT)
[1] = Pharmacokinetic measurements in rats (i.v., i.t., oral); format: in vivo; settings: rat; for concentration at 0.1 h / concentration at 1.5 h / concentration at 24 h: lung; for concentration at 0.1 h: read-out: lung concentration (nM) at time 0.1 h; for concentration at 1.5 h: read-out: lung concentration (nM) at time 1.5 h; for concentration at 24 h: read-out: lung concentration (nM) at time 24 h
PAMPA permeability assay = format: in vitro ADME
[2] = male, CD, other: intra-tracheal
[3] = i.t. dose 0.1 (nintedanib 0.42)
[4] = i.v. dose 0.1 (nintedanib 0.42)

PDGFRβ, sequence (P09619 33-1106): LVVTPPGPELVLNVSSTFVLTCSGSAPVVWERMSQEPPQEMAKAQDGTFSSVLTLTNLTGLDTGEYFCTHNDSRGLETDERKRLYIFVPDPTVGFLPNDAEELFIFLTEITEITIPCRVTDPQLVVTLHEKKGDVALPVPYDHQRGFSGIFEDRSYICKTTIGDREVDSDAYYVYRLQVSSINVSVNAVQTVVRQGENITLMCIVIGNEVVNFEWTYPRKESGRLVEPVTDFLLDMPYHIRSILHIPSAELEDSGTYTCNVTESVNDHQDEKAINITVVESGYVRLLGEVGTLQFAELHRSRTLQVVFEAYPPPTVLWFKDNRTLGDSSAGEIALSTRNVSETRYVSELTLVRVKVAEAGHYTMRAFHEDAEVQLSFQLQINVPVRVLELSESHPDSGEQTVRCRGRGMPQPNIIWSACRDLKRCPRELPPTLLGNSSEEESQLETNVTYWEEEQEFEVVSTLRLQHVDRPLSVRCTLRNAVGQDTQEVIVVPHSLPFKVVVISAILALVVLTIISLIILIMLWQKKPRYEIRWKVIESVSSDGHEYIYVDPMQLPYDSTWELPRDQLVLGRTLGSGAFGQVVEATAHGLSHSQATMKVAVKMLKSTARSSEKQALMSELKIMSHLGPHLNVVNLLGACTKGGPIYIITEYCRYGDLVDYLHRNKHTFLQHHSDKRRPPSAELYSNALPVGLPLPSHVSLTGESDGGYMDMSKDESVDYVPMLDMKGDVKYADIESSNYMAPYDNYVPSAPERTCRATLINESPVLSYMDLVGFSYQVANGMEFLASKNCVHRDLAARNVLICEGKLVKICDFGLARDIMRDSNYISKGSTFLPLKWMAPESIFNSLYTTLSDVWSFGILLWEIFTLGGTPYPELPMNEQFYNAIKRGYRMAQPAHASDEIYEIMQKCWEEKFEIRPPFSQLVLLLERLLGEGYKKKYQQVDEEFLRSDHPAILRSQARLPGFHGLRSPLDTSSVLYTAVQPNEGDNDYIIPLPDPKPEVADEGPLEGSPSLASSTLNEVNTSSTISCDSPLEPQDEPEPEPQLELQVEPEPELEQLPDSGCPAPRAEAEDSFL

In the case of `COC(=O)c1cc2c(cc1C)/C(=C(/Nc1ccc(C(=O)NCCN3CCNC(=O)CC3)cc1)c1ccccc1)C(=O)N2` [Example 53, (Z)-Methyl 5-methyl-2-oxo-3-(((4-((2-(5-oxo-1,4-diazepan-1-yl)ethyl)carbamoyl)phenyl)amino)(phenyl)methylene)indoline-6-carboxylate], the IC50 (PDGFRβ) is reported as 6.5 nM, the “Cell viability at 100 nM (%)” value (MRC5 cells) is reported as 89.1% and the “Cell viability at 300 nM (%)” value (MRC5 cells) is reported as 92.9%. For the same compound, the “Cell viability at 1000 nM (%)” value (MRC5 cells) was 95.3%.

With `COC(=O)c1cc2c(cc1C)/C(=C(/Nc1ccc(C(=O)N3CCN(CC(=O)NCCO)CC3)cc1)c1ccccc1)C(=O)N2` [Example 15, (Z)-Methyl 3-(((4-(4-(2-((2-hydroxyethyl)amino)-2-oxoethyl)piperazine-1-carbonyl)phenyl)amino) (phenyl)methylene)-5-methyl-2-oxoindoline-6-carboxylate] the “Cell viability at 100 nM (%)” value (MRC5 cells) was 91.3%, the “Cell viability at 300 nM (%)” value (MRC5 cells) was 109.9% and the “Cell viability at 1000 nM (%)” value (MRC5 cells) was 85.6%.

For `COC(=O)c1cc2c(cc1C)/C(=C(/Nc1ccc(C(=O)NCC3CCN(CCO)CC3)cc1)c1ccccc1)C(=O)N2` [Example 14, (Z)-Methyl 3-(((4-(((1-(2-hydroxyethyl)piperidin-4-yl)methyl)carbamoyl)phenyl)amino) (phenyl)methylene)-5-methyl-2-oxoindoline-6-carboxylate], the “Cell viability at 100 nM (%)” value (MRC5 cells) was 116.2%, the “Cell viability at 300 nM (%)” value (MRC5 cells) was 107.9% and the “Cell viability at 1000 nM (%)” value (MRC5 cells) was 61%.

For `COC(=O)c1cc2c(cc1C)/C(=C(/Nc1ccc(C(=O)NCC3CCN(CCO)CC3)cc1)c1ccccc1)C(=O)N2` [Example 50, (Z)-Methyl 3-(((4-(((1-(2-hydroxyethyl)piperidin-4-yl)methyl)carbamoyl)phenyl)amino)(phenyl)methylene)-5-methyl-2-oxoindoline-6-carboxylate], the “Cell viability at 100 nM (%)” value (MRC5 cells) was 116.2%, the “Cell viability at 300 nM (%)” value (MRC5 cells) was 107.9% and the “Cell viability at 1000 nM (%)” value (MRC5 cells) was 61.0%.

With `COC(=O)c1ccc2c(c1)NC(=O)/C2=C(\Nc1ccc(N(C)C(=O)CN2CCN(C)CC2)cc1)c1ccccc1` [Nintedanib, reference compound] the concentration at 0.1 h ([1]; male, CD, iv) was 2300 nM, the concentration at 1.5 h ([1]; male, CD, iv) was 1390 nM and the concentration at 24 h ([1]; male, CD, iv) was 66 nM. For the same compound, the concentration at 0.1 h [1, 2] was 12400 nM, the concentration at 1.5 h [1, 2] was 7700 nM and the concentration at 24 h [1, 2] was 152 nM. The MRT ([1]; male, CD, plasma, iv) was 3.8 h, the clearance ([1]; male, CD, plasma, iv) was 124 mL/min/kg and the half-life ([1]; male, CD, plasma, iv) was 3.9 h. The Vd ([1]; male, CD, plasma, iv, read-out: Vss) was 28 L/kg, the “i.t. BAV (%)” value [1, 3] was 43% and the “BAL % administered dose at time 0.1 h” value [1, 3] was 2%. For the same compound, the “BAL % administered dose at time 1.5 h” value [1, 3] was 1%, the “BAL % administered dose at time 24 h” value [1, 3] was 0.1% and the “BAL % administered dose at time 0.1 h” value [1, 4] was 0.06%. The “BAL % administered dose at time 1.5 h” value [1, 4] was 0.03%, the “BAL % administered dose at time 24 h” value [1, 4] was “BQL” and the “Cell viability at 100 nM (%)” value (MRC5 cells) was 104.6%. The “Cell viability at 300 nM (%)” value (MRC5 cells) was 105.6%, the “Cell viability at 1000 nM (%)” value (MRC5 cells) was 92.7% and the “% Recovery” value (PAMPA permeability assay) was 64.0%. It also gave a recovery at 5 hr, 10 μM (PAMPA permeability assay; pH 7, PAMPA) of 83.5%.

With `COC(=O)c1cc2c(cc1C)/C(=C(/Nc1ccc(C(=O)NC3CCN(CCO)CC3)cc1)c1ccccc1)C(=O)N2` [Example 49, (Z)-Methyl 3-(((4-((1-(2-hydroxyethyl)piperidin-4-yl)carbamoyl)phenyl)amino)(phenyl)methylene)-5-methyl-2-oxoindoline-6-carboxylate] the IC50 (PDGFRβ) was 1.25 nM.

Source: patent publication US10669235B2, “Indole derivatives and their use as protein kinase inhibitors” (RESPIVERT LIMITED, priority 2016, dated 2020)
